# Data: patent US20230339937A1, “CONDENSED RING COMPOUNDS THAT INHIBIT H-PGDS” (SATO PHARMACEUTICAL CO., LTD., priority 2020, published 2023)
# Target: T1, Recombinant human H-PGDS (Homo sapiens, UniProt O60760)
# T1 construct: made in house; host or cells: E. coli
# Assay: H-PGDS inhibitory activity (prostaglandin D2 production from prostaglandin H2, measured by LC-MS/MS)
# Assay type: biochemical
# Settings: recombinant human H-PGDS 1.0 nM expressed in E. coli; prostaglandin H2 25 μM; preincubated 15 minutes on ice, reacted on ice for 1 minute; concentration that inhibits prostaglandin D2 production by 50%
# In short: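 Recombinant human H-PGDS (E. coli-expressed, 1.0 nM final) preincubated with compound 15 min on ice in 20 mM Tris-HCl pH 8.0, 2 mM MgCl2, 2 mM GSH, 0.5 mg/mL γ-globulin. Reaction with 25 µM PGH2 run 1 min on ice, stopped with FeCl2/citric acid, PGD2 quantified by LC-MS/MS. Activity expressed as % of DMSO control after subtracting non-enzymatic PGD2.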
# T1 sequence (O60760 whole entry): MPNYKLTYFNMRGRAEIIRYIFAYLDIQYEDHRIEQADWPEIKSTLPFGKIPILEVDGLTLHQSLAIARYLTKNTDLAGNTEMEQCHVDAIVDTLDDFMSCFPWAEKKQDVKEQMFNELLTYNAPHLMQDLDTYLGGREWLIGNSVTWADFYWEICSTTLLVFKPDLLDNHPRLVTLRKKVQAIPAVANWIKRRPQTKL
row,SMILES,IC50 [nM]
1,"Cc1cc2occc2c(-c2ccc(C(=O)N[C@H]3CC[C@H](NCC(F)F)CC3)cc2)n1 [Example 331, N-{trans-4-[(2,2-difluoroethyl)amino]cyclohexyl}-4-(6-methylfuro[3,2-c]pyridin-4-yl)benzamide]",1.8
2,"Cc1cc2occc2c(-c2ccc(C(=O)N[C@H]3CCN(c4ncccn4)C3)cc2)n1 [Example 332, (S)-4-(6-methylfuro[3,2-c]pyridin-4-yl)-N-[1-(pyrimidin-2-yl)pyrrolidin-3-yl]benzamide]",1.6
3,"Cc1cc2occc2c(-c2ccc(C(=O)N[C@H]3CC[C@H](O)CC3)cc2)n1 [Example 333, N-(trans-4-hydroxycyclohexyl)-4-(6-methylfuro[3,2-c]pyridin-4-yl)benzamide]",2.3
4,"Cc1cc2occc2c(-c2ccc(C(=O)N[C@H]3CC[C@H](C4(O)CC4)CC3)cc2)n1 [Example 334, N-[trans-4-(1-hydroxycyclopropyl)cyclohexyl]-4-(6-methylfuro[3,2-c]pyridin-4-yl)benzamide]",2
5,"Cc1cc2occc2c(-c2ccc(C(=O)NC3CCN(C(=O)C4CC4)CC3)cc2)n1 [Example 335, N-[1-(cyclopropanecarbonyl)piperidin-4-yl]-4-(6-methylfuro[3,2-c]pyridin-4-yl)benzamide]",1.2
6,"O=C(N[C@H]1CC[C@H](O)CC1)c1ccc(-c2nccc3[nH]ccc23)cc1 [Example 337, N-(trans-4-hydroxycyclohexyl)-4-(1H-pyrrolo[3,2-c]pyridin-4-yl)benzamide]",0.44
7,"O=C(N[C@H]1CC[C@H](O)CC1)c1ccc(-c2nccc3sccc23)cc1 [Example 341, N-(trans-4-hydroxycyclohexyl)-4-(thieno[3,2-c]pyridin-4-yl)benzamide]",2.4
8,"Cc1cc2occc2c(-c2ccc(C(=O)N[C@H]3CC[C@H](OCC(C)(C)O)CC3)cc2)n1 [Example 342, N-[trans-4-(2-hydroxy-2-methylpropoxy)cyclohexyl]-4-(6-methylfuro[3,2-c]pyridin-4-yl)benzamide]",3
9,"O=C(NC12CCC(O)(CC1)CC2)c1ccc(-c2nccc3occc23)c(F)c1 [Example 345, 3-fluoro-4-(furo[3,2-c]pyridin-4-yl)-N-(4-hydroxybicyclo[2.2.2]octan-1-yl)benzamide]",1.2
10,"C[C@]1(O)CC[C@H](NC(=O)c2ccc(-c3nccc4occc34)c(F)c2)CC1 [Example 346, 3-fluoro-4-(furo[3,2-c]pyridin-4-yl)-N-(trans-4-hydroxy-4-methylcyclohexyl)benzamide]",2
11,"CC(C)(O)[C@]1(O)CC[C@@H](NC(=O)c2ccc(-c3nccc4occc34)cc2)CC1 [Example 350, 4-(furo[3,2-c]pyridin-4-yl)-N-[cis-4-hydroxy-4-(2-hydroxypropan-2-yl)cyclohexyl]benzamide]",27
12,"N#CC12CCC(NC(=O)c3ccc(-c4nccc5occc45)cc3)(CC1)CC2 [Example 351, N-(4-cyanobicyclo[2.2.2]octan-1-yl)-4-(furo[3,2-c]pyridin-4-yl)benzamide]",1.3
13,"NC(=O)C12CCC(NC(=O)c3ccc(-c4nccc5occc45)cc3)(CC1)CC2 [Example 352, 4-[4-(furo[3,2-c]pyridin-4-yl)benzamide]bicyclo[2.2.2]octane-1-carboxamide]",0.89
14,"CC(C)(O)[C@H]1CC[C@@H](NC(=O)c2ccc(-c3nccc4occc34)cc2)CC1 [Example 354, 4-(furo[3,2-c]pyridin-4-yl)-N-[cis-4-(2-hydroxypropan-2-yl)cyclohexyl]benzamide]",35

# Second part, the molecule after the results:
row,IC50 [nM],SMILES
1,1.7,"Cc1cc2occc2c(-c2ccc(C(=O)NC3CCN(c4nnnn4C)CC3)cc2)n1 [Example 330, N-[1-(1-methyl-1H-tetrazol-5-yl)piperidin-4-yl]-4-(6-methylfuro[3,2-c]pyridin-4-yl)benzamide]"
2,0.94,"O=C(NC1CCN(c2ncccn2)CC1)c1ccc(-c2nccc3[nH]ccc23)cc1 [Example 336, N-[1-(pyrimidin-2-yl)piperidin-4-yl]-4-(1H-pyrrolo[3,2-c]pyridin-4-yl)benzamide]"
3,2.4,"Cc1cc2[nH]ccc2c(-c2ccc(C(=O)N[C@H]3CC[C@H](C(C)(C)O)CC3)cc2)n1 [Example 338, N-[trans-4-(2-hydroxypropan-2-yl)cyclohexyl]-4-(6-methyl-1H-pyrrolo[3,2-c]pyridin-4-yl)benzamide]"
4,1.4,"Cc1cnc(-c2ccc(C(=O)N[C@H]3CC[C@H](C(C)(C)O)CC3)cc2)c2cc[nH]c12 [Example 339, N-[trans-4-(2-hydroxypropan-2-yl)cyclohexyl]-4-(7-methyl-1H-pyrrolo[3,2-c]pyridin-4-yl)benzamide]"
5,1,"CC(C)(O)[C@H]1CC[C@H](NC(=O)c2ccc(-c3nccc4[nH]ccc34)c(F)c2)CC1 [Example 340, 3-fluoro-N-[trans-4-(2-hydroxypropan-2-yl)cyclohexyl]-4-(1H-pyrrolo[3,2-c]pyridin-4-yl)benzamide]"
6,1.2,"Cc1cc2occc2c(-c2ccc(C(=O)NC34CCC(O)(CC3)CC4)cc2)n1 [Example 343, N-(4-hydroxybicyclo[2.2.2]octan-1-yl)-4-(6-methylfuro[3,2-c]pyridin-4-yl)benzamide]"
7,1.7,"Cc1cc2occc2c(-c2ccc(C(=O)N[C@H]3CC[C@](C)(O)CC3)cc2)n1 [Example 344, N-(trans-4-hydroxy-4-methylcyclohexyl)-4-(6-methylfuro[3,2-c]pyridin-4-yl)benzamide]"
8,2,"O=C(N[C@H]1CC[C@H](OCC2(O)CC2)CC1)c1ccc(-c2nccc3occc23)c(F)c1 [Example 347, 3-fluoro-4-(furo[3,2-c]pyridin-4-yl)-N-(trans-4-[(1-hydroxycyclopropyl)methoxy]cyclohexyl)benzamide]"
9,1.7,"CC(C)(O)CO[C@H]1CC[C@@H](NC(=O)c2ccc(-c3nccc4occc34)cc2)CC1 [Example 348, 4-(furo[3,2-c]pyridin-4-yl)-N-[cis-4-(2-hydroxy-2-methylpropoxy)cyclohexyl]benzamide]"
10,1.5,"O=C(NC12CCC(O)(CC1)C2)c1ccc(-c2nccc3occc23)cc1 [Example 349, 4-(furo[3,2-c]pyridin-4-yl)-N-(4-hydroxybicyclo[2.2.1]heptan-1 yl)benzamide]"
11,1.4,"O=C(N[C@H]1CC[C@@H](OCC2(O)CC2)CC1)c1ccc(-c2nccc3occc23)cc1 [Example 353, 4-(furo[3,2-c]pyridin-4-yl)-N-(cis-4-[(1-hydroxycyclopropyl)methoxy]cyclohexyl)benzamide]"
